Tested on: pancreatic cancer cell line SW1990
Assay: Relative quantitation of sialylated N-glycans from SW1990 cells with and without 1,3,4-O-Bu3ManNAc treatment (light/heavy p-toluidine labeling, MALDI-MS)
Format: cell-based
Settings: for H/L: SW1990 cells treated (heavy) vs untreated (light), glycan Core+Na
Experimental: Proteins were immobilized to amino link beads via reductive amination. Briefly, AminoLink resin (200 μL) was loaded onto snap-cap spin-column, centrifuged at 2000 g for 1 minute. Resin was washed with 450 μL of pH 10 buffer (Sodium citrate 100 mM and sodium carbonate 50 mM) followed by centrifugation. The washing step was repeated twice. Proteins dissolved in pH 10 buffer were loaded onto prepared AminoLink resin in snap-cap spin-column in 1 mg/200 μL beads ratio. The volume was adjusted to 450 μL using pH 10 buffer. Sample-resin mixture was incubated at room temperature overnight. The mixture was centrifuged at 2000 g to remove any unbound protein. Resin was rinsed by 1×PBS buffer (Sigma-Aldrich; pH 7.4; 450 μL) three times. PBS buffer in the presence of 50 mM sodium cyanoborohydride (450 μL) was added to resin (spin-column capped during each incubation step). After a four hour incubation, supernatant was removed via centrifugation (2000 g) and 450 μL of 1 M Tris-HCl (pH 7.6) in the presence of 50 mM sodium cyanoborohydride was added to block un-reacted aldehyde sites of resin. The blocking process was terminated after 1 hour, followed by washing of resin with PBS twice, 1M […] twice and water three times.
Proteins conjugated on solid support were mixed with 450 μL of 1M p-toluidine and 40 μL of EDC at pH 4.5 adjusted using HCl. After incubation for 4 hours, beads were washed twice with 500 μL of 1M NaCl and water followed by 50 mM ammonium bicarbonate, three times for each solution, and treated with 100 units of PNGase F in 0.3 mL of 50 mM ammonium bicarbonate overnight at 37° C. to release N-glycans from proteins. Nglycans released in the supernatant were subsequently collected. The N-glycans released from glycoproteins were further purified and concentrated over Carbograph columns (Extract-Clean SPE Carbo 150 mg; Grace Division Discovery Science; Deerfield, Ill.) and eluted in 0.1% TFA 50% acetonitrile/water following the manufacturer's instruction (Grace Davison Discovery Sciences, Milwaukee, Wis.). Glycans were then dried in Savant Speed-Vac (Thermo Scientific, Asheville, N.C.).
Glycans were resuspended in 20 μL of water. Sample 1.5 μL was mixed 1.5 μL of matrix on a 384-well goals MALDI plate (Hudson Surface Technology, Fort Lee, N.J.). DHB matrix solution was prepared by dissolving 100 mg of DHB in 1 mL of a 1:1 solution of water and ACN followed by addition of 40 μL of dimethylaniline. Glycans were analyzed by Shimadzu AXIMA Resonance Mass Spectrometer (Shimadzu, Columbia, Md.) in positive mode.
It has been well established that the extent of glycan sialylation depends on sialyltransferases, the biosynthetic enzymes responsible for adding a sialic acid to an underlying galactose or GalNAc residue. […] To fill this void, in the present invention we profiled N-glycans in SW1990 treated with 1,3,4-O-Bu3ManNAc as previously described. Protein extract from 1,3,4-O-Bu3ManNAc treated SW1990 cells and untreated control cells were conjugated to solid support and labeled with isotopic p-toluidine as described above. The mass spectrometric analysis of labeled glycans identified 87 N-glycans based on accurate mass (data not shown). Sialic acid compositional assignment was determined based on the differences of heavy and light labeled glycans. Twenty one heavy and light glycan peaks were identified with a mass shift of 7 or a multiple of 7, confirming that the presence of 21 sialylated glycans (FIGS. 13A and 13B). Qualitative analysis of N-glycans from cells with and without ManNAc treatment using isotopic labeling of sialylated N-glycans with 1:1 combined samples identified and quantified 14 sialylated glycans (Table 5). Seven other sialylated Nglycans could not be quantified due to low signal to noise ratio when the two samples were combined for MS analysis.

## CCCC(=O)OC1O[C@H](CO)[C@@H](OC(=O)CCC)[C@H](OC(=O)CCC)[C@@H]1NC(C)=O (stereo partly shown) [1,3,4-O—Bu3ManNAc, 1,3,4-O-Bu3ManNAc]
Fucose 0, HexNAc 2, Hexose 2, Sialic Acid 1, [M+Na] 2043.89
  H/L: 1.29
Fucose 1, HexNAc 2, Hexose 2, Sialic Acid 1, [M+Na] 2189.95
  H/L: 1.09
Fucose 1, HexNAc 2, Hexose 2, Sialic Acid 2, [M+Na] 2570.21
  H/L: 1.02
Fucose 1, HexNAc 3, Hexose 2, Sialic Acid 1, [M+Na] 2393.04
  H/L: 1.95
Fucose 1, HexNAc 3, Hexose 2, Sialic Acid 2, [M+Na] 2773.31
  H/L: 1.70
Fucose 1, HexNAc 3, Hexose 3, Sialic Acid 1, [M+Na] 2555.10
  H/L: 1.31
Fucose 1, HexNAc 3, Hexose 3, Sialic Acid 2, [M+Na] 2935.36
  H/L: 0.98
Fucose 1, HexNAc 4, Hexose 3, Sialic Acid 1, [M+Na] 2758.19
  H/L: 1.66
Fucose 2, HexNAc 2, Hexose 2, Sialic Acid 1, [M+Na] 2336.01
  H/L: 1.10
Fucose 2, HexNAc 3, Hexose 2, Sialic Acid 1, [M+Na] 2539.10
  H/L: 1.31
Fucose 2, HexNAc 3, Hexose 3, Sialic Acid 1, [M+Na] 2701.15
  H/L: 1.03
Fucose 2, HexNAc 4, Hexose 3, Sialic Acid 1, [M+Na] 2904.25
  H/L: 2.04
Fucose 3, HexNAc 3, Hexose 2, Sialic Acid 1, [M+Na] 2585.15
  H/L: 1.00
Fucose 3, HexNAc 4, Hexose 3, Sialic Acid 1, [M+Na] 3050.31
  H/L: 1.39
SW1990 cells, treated vs untreated
  decrease in sialylated N-glycans when cells were treated: no significant decrease
SW1990 cells, treated vs untreated, 14 sialylated glycans quantified
  number of sialylated N-glycan compositions with a significant increase in abundance: six

From patent US20150233903A1, “SOLID PHASE GLYCAN AND GLYCOPEPTIDE ANALYSIS AND MICROFLUIDIC CHIP FOR GLYCOMIC EXTRACTION, ANALYSIS AND METHODS FOR USING SAME” (THE JOHNS HOPKINS UNIVERSITY, priority 2012, published 2015)
